Laboratory results taken from patent publication US6566580B1, “Neurological disease model” (priority 1996, dated 2003).
Several values for one entry are separate records, joined by “and”; a condition that tells them apart may be missing. Equal values may be shown once.

Columns and labels:
[1] = tested on: synaptic transmission in the Schaffer collateral-commissural pathway; assay: L-AP4 depression of synaptic transmission, field EPSP recordings in hippocampal CA1 slices; format: cell-based, mice; conditions: L-AP4 1 mM
Protocol: To investigate the possible functions of mGlu7 electrophysiological experiments are performed in the CA1 region of the hippocampus, a region rich in mGlu7. […] L-AP4 (1 mM) is therefore applied to wild-type and mGlu7^−/− mice. […] However, all three patterns are seen in both wild-type and mutant mice. On average there is no significance difference in the actions of L-AP4 between groups; the peak L-AP4 induced depressions for wild-type and mutant mice are 40±10% (n=15) and 33±10% (n=14), respectively (P>0.05). Furthermore, no statistically significant differences are seen in intrinsic or synaptic properties between wild-type and mutant mice. Also, paired-pulse facilitation is similar between both groups. Thus, the facilitation ratio obtained, using an interpulse interval of 50 ms, is 1.49±0.03 and 1.45±0.04 for wild-type (n=9) and mutant (n=9) mice, respectively (P>0.05).
Since certain members of the mGlu family have been implicated in the generation of LTP in area CA1, the ability of wild-type and mutant mice to support this form of synaptic plasticity is compared as follows. […]
There are no apparent differences in low frequency synaptic transmission between the two groups of mice. […] Statistical significance is determined using a repeated measures ANOVA test and unpaired Students t-tests. […]

[2] = tested on: synaptic transmission in the Schaffer collateral-commissural pathway; conditions: 1 mM L-AP4, Schaffer collateral-commissural pathway, literature; cited from earlier work
mGlu7 = mGlu7 (Rattus norvegicus, UniProt P35400); conditions: high concentrations of L-AP4, e.g. 1 mM, recombinant systems; cited from earlier work
[3] = tested on: mice (mGluR7 -/-, +/-, +/+); assay: Pentylenetetrazol (PTZ)-induced seizures in mGluR7 knockout, heterozygote and wild-type mice; format: in vivo; conditions: PTZ 40 mg/kg i.p.
Protocol: Intraperitoneal (i.p.) injection of a normally subconvulsive dose of PTZ (40 mg/kg) induced seizures in 9 out of 9 homozygous mGluR7 knockout mice (age 9 months) as shown in the Table below.
This sensitivity to a subconvulsive dose of PTZ is not yet evident at age 6 weeks but clearly evident at age 10 weeks in mGluR7 homozygous but not in heterozygous littermates as shown in the table below.

mice (mGluR7 -/-, +/-) = assay: EEG recording with surface electrodes before and after PTZ injection; format: in vivo; conditions: PTZ 40 mg/kg
Protocol: In addition, two mGluR7−/− and two mGluR7+/− mice were equipped with surface electrodes to record EEGs before and after injection of 40 mg/kg PTZ.

Sequence of mGlu7 (P35400 35-915): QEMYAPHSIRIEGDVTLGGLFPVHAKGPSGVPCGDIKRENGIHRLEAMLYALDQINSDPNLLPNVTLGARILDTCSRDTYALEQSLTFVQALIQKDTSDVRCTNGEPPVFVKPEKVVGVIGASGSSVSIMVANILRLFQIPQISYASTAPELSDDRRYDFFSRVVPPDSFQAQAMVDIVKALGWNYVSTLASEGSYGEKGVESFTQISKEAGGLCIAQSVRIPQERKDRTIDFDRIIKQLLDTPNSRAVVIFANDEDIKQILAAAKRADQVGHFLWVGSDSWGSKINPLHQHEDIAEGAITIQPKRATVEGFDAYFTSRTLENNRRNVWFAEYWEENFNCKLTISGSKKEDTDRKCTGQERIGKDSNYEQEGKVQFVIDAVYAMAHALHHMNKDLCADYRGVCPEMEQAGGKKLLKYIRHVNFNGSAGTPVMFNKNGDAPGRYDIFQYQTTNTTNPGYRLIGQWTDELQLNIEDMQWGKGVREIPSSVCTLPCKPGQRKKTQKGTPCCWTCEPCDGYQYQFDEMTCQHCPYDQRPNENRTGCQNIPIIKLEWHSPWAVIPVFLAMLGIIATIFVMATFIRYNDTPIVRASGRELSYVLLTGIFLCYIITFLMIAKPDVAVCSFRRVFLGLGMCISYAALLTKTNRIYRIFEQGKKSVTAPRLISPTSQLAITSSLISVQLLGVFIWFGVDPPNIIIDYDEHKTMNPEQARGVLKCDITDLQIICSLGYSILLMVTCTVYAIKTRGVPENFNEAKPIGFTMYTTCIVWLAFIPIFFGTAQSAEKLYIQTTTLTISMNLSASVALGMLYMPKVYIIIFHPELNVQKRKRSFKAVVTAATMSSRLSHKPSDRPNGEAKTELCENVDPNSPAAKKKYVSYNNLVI

Compound: N[C@@H](CCP(=O)(O)O)C(=O)O [L-AP4, (S)-2-amino-4-phosphonobutanoate]
- peak L-AP4 induced depression ([1]; mutant (mGlu7 -/-) mice, n=14): 33±10%
- peak L-AP4 induced depression ([1]; wild-type mice, n=15): 40±10%
- effect on synaptic transmission [2]: can depress synaptic transmission
- activation of mGlu7 (mGlu7): can activate mGlu7

Compound: C1CCc2nnnn2CC1 [PTZ, Pentylenetetrazol]
- mice with induced seizures ([3]; homozygous mGluR7 knockout mice, age 9 months): 9 out of 9
- Clonic activity ([3]; mGluR7 +/- heterozygote mice, per animal): 3′
- mice with clonic seizures ([3]; mGluR7+/- mice): 1 out of 9
- Clonic activity ([3]; mGluR7 -/- mice, age 6 weeks, per animal): 6′
- Clonic activity ([3]; mGluR7 -/- mice, age 10 weeks, per animal): 2′ (2×) and 4′ (4×)
- Clonic activity ([3]; mGluR7 -/- mice, per animal): 2′ and 15′
- Exitus ([3]; mGluR7 -/- mice, per animal): 4′ (2×) and 12′ and 11′ and 6′
- Tonic activity ([3]; mGluR7 -/- mice, per animal): 3′ (2×) and 12′ and 2′ and 4′ and 6′
- mice with induced seizures ([3]; wild type mice (mGluR7+/+)): None of 9
- seizures following injection ([3]; wild type non-transgenic mice tested in parallel with the 6 and 10 week experiments): no seizures
- EEG after PTZ injection (mice (mGluR7 -/-, +/-); homozygous mGluR7 knockout mice): typical signals reminiscent of seizure activity
- EEG after PTZ injection (mice (mGluR7 -/-, +/-); mGluR7+/- mice): no such activity developed
